Experimental data as given in ChEMBL document CHEMBL1697821, “Development of a phospholipidosis database and predictive quantitative structure-activity relationship (QSAR) models” (Toxicol Mech Methods, 2008).

System: Phospholipidosis
Assay: Literature-mined public compounds from Kruhlak et al phospholipidosis modelling dataset

Structure (SMILES)	Phospholipidosis
CNS(=O)(=O)Cc1ccc2[nH]cc(CCN(C)C)c2c1	Negative: confirmed by electron microscopy
CCN(CC)CCSC(=O)C(c1ccccc1)c1ccccc1	Negative: based on the absence of positive reported data from WMDD
COc1nccnc1NS(=O)(=O)c1ccc(N)cc1	Negative: based on the absence of positive reported data from WMDD
CCOC(=O)[C@H](CCc1ccccc1)N[C@@H](C)C(=O)N1Cc2ccccc2C[C@H]1C(=O)O	Negative: based on the absence of positive reported data from WMDD
OC(CN1CCCCC1)c1ccc(C=C2c3ccccc3-c3ccccc32)cc1 (configuration not stated)	Positive: strong inducer confirmed by electron microscopy
CCCC[C@@H]1CC(=O)[C@]2(O)O[C@@H]3[C@@H](NC)[C@@H](O)[C@@H](NC)[C@H](O)[C@H]3O[C@@H]2O1.O=S(=O)(O)O	Positive: strong inducer confirmed by electron microscopy
CN1CCN(C2=Nc3cc(Cl)ccc3N(C)n3cccc32)CC1	Positive: strong inducer confirmed by electron microscopy
CC(=O)Nc1ccc(O)cc1 [ACETAMINOPHEN]	Negative: confirmed by electron microscopy
CC(=O)c1ccc2c(c1)N(CCCN1CCN(CCO)CC1)c1ccccc1S2 [ACETOPHENAZINE]	Negative: based on the absence of positive reported data from WMDD
CC(=O)Nc1c(I)cc(I)c(C(=O)O)c1I [ACETRIZOIC ACID]	Negative: based on the absence of positive reported data from WMDD
Nc1ncnc2nc[nH]c12 [ADENINE]	Negative: based on the absence of positive reported data from WMDD
Nc1ncnc2c1ncn2[C@@H]1O[C@H](CO)[C@@H](O)[C@H]1O [ADENOSINE]	Negative: based on the absence of positive reported data from WMDD
CCCSc1ccc2nc(NC(=O)OC)[nH]c2c1 [ALBENDAZOLE]	Negative: based on the absence of positive reported data from WMDD
C=CCN1C(=O)C(CC(C)C)NC1=S (configuration not stated) [ALBUTOIN]	Negative: based on the absence of positive reported data from WMDD
Oc1ncnc2[nH]ncc12 [ALLOPURINOL]	Positive: weak inducer based on presence of foamy macrophages and cytoplasmic vacuolations
C=CC[C@]1(O)CC[C@H]2[C@@H]3CCC4=CCCC[C@@H]4[C@H]3CC[C@@]21C [ALLYLESTRENOL]	Negative: based on the absence of positive reported data from WMDD
NC12CC3CC(CC(C3)C1)C2 [AMANTADINE]	Positive: strong inducer confirmed by electron microscopy
N=C(N)N/N=C1C=C/C(=N\NC(N)=S)C=C\1 [AMBAZONE]	Negative: based on the absence of positive reported data from WMDD
Nc1c(Br)cc(Br)cc1CN[C@H]1CC[C@H](O)CC1 [AMBROXOL]	Positive: weak inducer based on presence of foamy macrophages and cytoplasmic vacuolations

Structure (SMILES)	Phospholipidosis
NCC[C@H](O)C(=O)N[C@@H]1C[C@H](N)[C@@H](O[C@H]2O[C@H](CN)[C@@H](O)[C@H](O)[C@H]2O)[C@H](O)[C@H]1O[C@H]1O[C@H](CO)[C@@H](O)[C@H](N)[C@H]1O [AMIKACIN]	Positive: strong inducer confirmed by electron microscopy
CCC1(c2ccc(N)cc2)CCC(=O)NC1=O (configuration not stated) [AMINOGLUTETHIMIDE]	Negative: based on the absence of positive reported data from WMDD
Nc1nc(N)c2nc(CNc3ccc(C(=O)N[C@@H](CCC(=O)O)C(=O)O)cc3)cnc2n1 [AMINOPTERIN]	Negative: based on the absence of positive reported data from WMDD
CCCCc1oc2ccccc2c1C(=O)c1cc(I)c(OCCN(CC)CC)c(I)c1 [AMIODARONE]	Positive: strong inducer confirmed by electron microscopy
CN(C)CCC=C1c2ccccc2CCc2ccccc21 [AMITRIPTYLINE]	Positive: strong inducer confirmed by electron microscopy
CC1(C)S[C@@H]2[C@H](NC(=O)[C@H](N)c3ccc(O)cc3)C(=O)N2[C@H]1C(=O)O [AMOXICILLIN]	Negative: based on the absence of positive reported data from WMDD
CC(N)Cc1ccccc1 (configuration not stated) [AMPHETAMINE]	Negative: based on the absence of positive reported data from WMDD
N=c1ccn2c(n1)O[C@H]1[C@H](O)[C@@H](CO)O[C@H]12 [ANCITABINE]	Negative: based on the absence of positive reported data from WMDD
C[C@]12CC[C@H]3[C@@H](CC=C4C[C@@H](O)CC[C@@]43C)[C@@H]1CC[C@@H]2O [ANDROSTENEDIOL]	Negative: based on the absence of positive reported data from WMDD
CCOC(=O)C1(c2ccccc2)CCN(CCc2ccc(N)cc2)CC1 [ANILERIDINE]	Negative: based on the absence of positive reported data from WMDD
CCCC(CCC)C(=O)O[C@H]1C[C@H]2CC[C@@H](C1)[N+]2(C)C.[Br-] [ANISOTROPINE METHYLBROMIDE]	Negative: based on the absence of positive reported data from WMDD
c1ccc(CN(CC2=NCCN2)c2ccccc2)cc1 [ANTAZOLINE]	Negative: based on the absence of positive reported data from WMDD
CCCC1C(=O)N2C(N(C)C)=Nc3ccc(C)cc3N2C1=O (configuration not stated) [APAZONE]	Negative: based on the absence of positive reported data from WMDD
CN1[C@@H]2CC[C@H]1C[C@@H](OC(=O)C(CO)c1ccccc1)C2 (some centres not stated) [ATROPINE]	Positive: weak inducer based on presence of foamy macrophages and cytoplasmic vacuolations
CN(C)CCCN(C)[C@H]1CC[C@H]2[C@@H]3CC=C4C[C@@H](O)CC[C@]4(C)[C@H]3CC[C@]12C [AZACOSTEROL]	Positive: strong inducer confirmed by electron microscopy
CC(=O)OC[C@H]1O[C@@H](n2ncc(=O)[nH]c2=O)[C@H](OC(C)=O)[C@@H]1OC(C)=O [AZARIBINE]	Negative: based on the absence of positive reported data from WMDD
CN1CCN(CCCCN2C(=O)CN(/N=C/c3ccc(-c4ccc(Cl)cc4)o3)C2=O)CC1.Cl.Cl [AZIMILIDE DIHYDROCHLORIDE]	Positive: weak inducer based on presence of foamy macrophages and cytoplasmic vacuolations
CC[C@H]1OC(=O)[C@H](C)[C@@H](O[C@H]2C[C@@](C)(OC)[C@@H](O)[C@H](C)O2)[C@H](C)[C@@H](O[C@@H]2O[C@H](C)C[C@H](N(C)C)[C@H]2O)[C@](C)(O)C[C@@H](C)CN(C)[C@H](C)[C@@H](O)[C@]1(C)O [AZITHROMYCIN]	Positive: weak inducer based on presence of foamy macrophages and cytoplasmic vacuolations
CCC1(CC)C(=O)NC(=O)NC1=O [BARBITAL]	Negative: based on the absence of positive reported data from WMDD

Structure (SMILES)	Phospholipidosis
NC[C@H]1O[C@H](O[C@H]2[C@H](O)[C@@H](O[C@H]3O[C@H](CO)[C@@H](O)[C@H](N)[C@H]3O)[C@H](N)C[C@@H]2N)[C@H](N)[C@@H](O)[C@@H]1O [BEKANAMYCIN]	Negative: based on the absence of positive reported data from WMDD
NS(=O)(=O)c1cc2c(cc1C(F)(F)F)NC(Cc1ccccc1)NS2(=O)=O (configuration not stated) [BENDROFLUMETHIAZIDE]	Negative: based on the absence of positive reported data from WMDD
CC(=O)Nc1ccc(OC(=O)c2ccccc2OC(C)=O)cc1 [BENORILATE]	Negative: based on the absence of positive reported data from WMDD
NC(=O)c1ccccc1 [BENZAMIDE]	Positive: weak inducer based on presence of foamy macrophages and cytoplasmic vacuolations
CCN(CC)C(=O)C1CN2CCc3cc(OC)c(OC)cc3C2CC1OC(C)=O (configuration not stated) [BENZQUINAMIDE]	Negative: based on the absence of positive reported data from WMDD
CN1[C@@H]2CC[C@H]1C[C@@H](OC(c1ccccc1)c1ccccc1)C2 [BENZTROPINE]	Negative: based on the absence of positive reported data from WMDD
OCc1ccccc1 [BENZYL ALCOHOL]	Negative: based on the absence of positive reported data from WMDD
C[N+](C)(CCOc1ccccc1)Cc1ccccc1.O=C([O-])c1cc2ccccc2cc1O [BEPHENIUM HYDROXYNAPHTHOATE]	Negative: based on the absence of positive reported data from WMDD
CC(C)COCC(CN(Cc1ccccc1)c1ccccc1)N1CCCC1 (configuration not stated) [BEPRIDIL]	Negative: based on the absence of positive reported data from WMDD
CC1=C(/C=C/C(C)=C/C=C/C(C)=C/C=C/C=C(C)/C=C/C=C(C)/C=C/C2=C(C)CCCC2(C)C)C(C)(C)CCC1 [BETA CAROTENE]	Negative: based on the absence of positive reported data from WMDD
C[N+](C)(C)CC(=O)O [BETAINE]	Negative: based on the absence of positive reported data from WMDD
CC(=O)OCC(=O)[C@@]1(O)[C@@H](C)C[C@H]2[C@@H]3CCC4=CC(=O)C=C[C@]4(C)[C@@]3(F)[C@@H](O)C[C@@]21C [BETAMETHASONE ACETATE]	Negative: based on the absence of positive reported data from WMDD
CC(=O)OCC(=O)[C@@]1(OC(=O)C(C)C)[C@@H](C)C[C@H]2[C@@H]3CCC4=CC(=O)C=C[C@]4(C)[C@@]3(F)[C@@H](O)C[C@@]21C [BETAMETHASONE ACIBUTATE]	Negative: based on the absence of positive reported data from WMDD
CC(C)NCC(O)COc1ccc(CCOCC2CC2)cc1 (configuration not stated) [BETAXOLOL]	Negative: based on the absence of positive reported data from WMDD
C/N=C(\NC)NCc1ccccc1 [BETHANIDINE]	Negative: based on the absence of positive reported data from WMDD
C=CC1=C(C)/C(=C/c2[nH]c(Cc3[nH]c(/C=C4\NC(=O)C(C)=C4C=C)c(C)c3CCC(=O)O)c(CCC(=O)O)c2C)NC1=O [BILIRUBIN]	Positive: strong inducer confirmed by electron microscopy
CC(=O)Oc1ccc(C(c2ccc(OC(C)=O)cc2)c2ccccn2)cc1 [BISACODYL]	Negative: based on the absence of positive reported data from WMDD
FC(F)(F)c1ccc(-c2ccc(OCCN3CCCC3)cc2)cc1 [BOXIDINE]	Positive: strong inducer confirmed by electron microscopy
CC[N+](C)(C)Cc1ccccc1Br.Cc1ccc(S(=O)(=O)[O-])cc1 [BRETYLIUM TOSYLATE]	Negative: based on the absence of positive reported data from WMDD
